In patent publication US20240116985A1, “STAPLED PEPTIDES AND METHODS THEREOF” (priority 2020, published 2024):

What follows are compounds tested against T1, full-length beta-Catenin (Uniprot ID P35222) (Homo sapiens, UniProt P35222) (assay: Fluorescence polarization IC50 (beta-catenin / 5FAM-TCF4 10-53 competition)). Conditions: fluorescence polarization; read-out: beta-Catenin FP IC50.
T1 construct: 10 nM full-length beta-Catenin (Uniprot ID P35222)
T1 sequence (P35222 1-781): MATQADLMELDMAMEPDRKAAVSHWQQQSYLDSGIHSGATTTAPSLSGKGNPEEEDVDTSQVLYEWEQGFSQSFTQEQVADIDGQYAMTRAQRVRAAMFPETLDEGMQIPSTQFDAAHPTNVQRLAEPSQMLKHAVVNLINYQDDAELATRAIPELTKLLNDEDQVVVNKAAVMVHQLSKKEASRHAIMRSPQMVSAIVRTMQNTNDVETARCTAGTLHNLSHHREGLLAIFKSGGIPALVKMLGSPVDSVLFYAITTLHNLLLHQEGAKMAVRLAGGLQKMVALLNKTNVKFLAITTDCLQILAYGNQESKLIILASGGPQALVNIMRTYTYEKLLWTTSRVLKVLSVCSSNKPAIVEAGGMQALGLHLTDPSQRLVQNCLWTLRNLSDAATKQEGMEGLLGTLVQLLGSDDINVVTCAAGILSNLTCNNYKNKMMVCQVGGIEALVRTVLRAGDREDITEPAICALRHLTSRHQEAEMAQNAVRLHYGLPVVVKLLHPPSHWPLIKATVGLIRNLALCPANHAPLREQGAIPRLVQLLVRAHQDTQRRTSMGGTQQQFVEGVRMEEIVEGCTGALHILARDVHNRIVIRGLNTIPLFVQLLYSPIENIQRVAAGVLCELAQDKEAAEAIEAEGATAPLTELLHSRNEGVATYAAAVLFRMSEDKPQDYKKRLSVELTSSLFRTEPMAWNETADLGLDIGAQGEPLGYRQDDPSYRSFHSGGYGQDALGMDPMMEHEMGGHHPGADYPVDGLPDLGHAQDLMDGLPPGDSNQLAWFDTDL
Assay type: binding

| Structure (SMILES) | IC50 [nM] |
| --- | --- |
| CC(=O)N1CCC[C@]12CC=CCCCC1(CCCC=CCCCOC(=O)N3CC[C@@](C(=O)N[C@@H](Cc4cscn4)C(=O)N[C@@H](Cc4csc5ccccc45)C(=O)N[C@@H](CCO)C(N)=O)(C3)NC(=O)[C@H](CC(N)=O)NC(=O)[C@H](Cc3ccccc3)NC(=O)[C@H](C)NC(=O)[C@H](CCCCNC(C)C)NC(=O)[C@H](CCC(N)=O)NC(=O)[C@H](CC(=O)O)NC1=O)NC(=O)[C@H](CC1CCCCC1)NC(=O)[C@H](CC(N)=O)NC2=O (stereo partly drawn) [I-2071, Ac-PL3-Asn-Cha-B5-Asp-Gln-iPrLys-Ala-Phe-Asn-PyrS2-4Thz-BztA-Hse-NH2] | 592 |
| CC(=O)N1CCC[C@]12CC=CCCCC1(CCCC=CCCCOC(=O)N3CC[C@@](C(=O)N[C@@H](Cc4ccccc4)C(=O)N[C@@H](Cc4csc5ccccc45)C(=O)N[C@@H](CCO)C(N)=O)(C3)NC(=O)[C@H](CC(N)=O)NC(=O)[C@H](Cc3cscn3)NC(=O)[C@H](C)NC(=O)[C@H](CCCCNC(C)C)NC(=O)[C@H](CCC(N)=O)NC(=O)[C@H](CC(=O)O)NC1=O)NC(=O)[C@H](CC1CCCCC1)NC(=O)[C@H](CC(N)=O)NC2=O (stereo partly drawn) [I-2072, Ac-PL3-Asn-Cha-B5-Asp-Gln-iPrLys-Ala-4Thz-Asn-PyrS2-Phe-BztA-Hse-NH2] | 8260 |
| CC(=O)N1CCC[C@]12CC=CCCCC1(CCCC=CCCCOC(=O)N3CC[C@@](C(=O)N[C@@H](Cc4ccccc4)C(=O)N[C@@H](Cc4csc5ccccc45)C(N)=O)(C3)NC(=O)[C@H](CC(N)=O)NC(=O)[C@H](Cc3ccccc3)NC(=O)[C@H](C)NC(=O)[C@H](CCCCNC(C)C)NC(=O)[C@H](CCC(N)=O)NC(=O)[C@H](CC(=O)O)NC1=O)NC(=O)[C@H](CC1CCCCC1)NC(=O)[C@H](CC(N)=O)NC2=O (stereo partly drawn) [I-2073, Ac-PL3-Asn-Cha-B5-Asp-Gln-iPrLys-Ala-Phe-Asn-PyrS2-Phe-BztA-NH2] | 398 |
| CC(=O)N1CCC[C@]12CC=CCCCC1(CCCC=CCCCOC(=O)N3CC[C@@](C(=O)N[C@@H](Cc4ccsc4)C(=O)N[C@@H](Cc4csc5ccccc45)C(=O)N[C@@H](CCO)C(N)=O)(C3)NC(=O)[C@H](CC(N)=O)NC(=O)[C@H](Cc3ccccc3)NC(=O)[C@H](C)NC(=O)[C@H](CCCCNC(C)C)NC(=O)[C@H](CCC(N)=O)NC(=O)[C@H](CC(=O)O)NC1=O)NC(=O)[C@H](CC1CCCCC1)NC(=O)[C@H](CC(N)=O)NC2=O (stereo partly drawn) [I-2074, Ac-PL3-Asn-Cha-B5-Asp-Gln-iPrLys-Ala-Phe-Asn-PyrS2-3Thi-BztA-Hse-NH2] | 789 |
| CC(=O)N1CCC[C@]12CC=CCCCC1(CCCC=CCCCOC(=O)N3CC[C@@](C(=O)N[C@@H](Cc4cccs4)C(=O)N[C@@H](Cc4csc5ccccc45)C(=O)N[C@@H](CCO)C(N)=O)(C3)NC(=O)[C@H](CC(N)=O)NC(=O)[C@H](Cc3ccccc3)NC(=O)[C@H](C)NC(=O)[C@H](CCCCNC(C)C)NC(=O)[C@H](CCC(N)=O)NC(=O)[C@H](CC(=O)O)NC1=O)NC(=O)[C@H](CC1CCCCC1)NC(=O)[C@H](CC(N)=O)NC2=O (stereo partly drawn) [I-2075, Ac-PL3-Asn-Cha-B5-Asp-Gln-iPrLys-Ala-Phe-Asn-PyrS2-2Thi-BztA-Hse-NH2] | 2330 |
| CC(=O)N1CCC[C@]12CC=CCCCC1(CCCC=CCCCOC(=O)N3CC[C@@](C(=O)N[C@@H](Cc4ccccc4C(F)(F)F)C(=O)N[C@@H](Cc4csc5ccccc45)C(=O)N[C@@H](C)C(N)=O)(C3)NC(=O)[C@H](CC(C)C)NC(=O)[C@H](Cc3ccccc3)NC(=O)[C@@H](C)NC(=O)[C@H](C)NC(=O)[C@H](Cc3cccc(C(=O)O)c3)NC(=O)[C@H](CC(=O)O)NC1=O)NC(=O)[C@H](CC(C)(C)C)NC(=O)[C@H](CC(=O)O)NC2=O (stereo partly drawn) [I-2099, Ac-PL3-Asp-Npg-B5-Asp-3COOHF-Ala-dAla-Phe-Leu-PyrS2-2F3MeF-BztA-Ala-NH2] | 325 |
| CC(=O)N1CCC[C@]12CC=CCCCC1(CCCC=CCCCOC(=O)N3CC[C@@](C(=O)N[C@@H](Cc4ccccc4C(F)(F)F)C(=O)N[C@@H](Cc4csc5ccccc45)C(=O)N[C@H](C)C(N)=O)(C3)NC(=O)[C@H](CC(C)C)NC(=O)[C@H](Cc3ccccc3)NC(=O)[C@@H](C)NC(=O)[C@H](C)NC(=O)[C@H](Cc3cccc(C(=O)O)c3)NC(=O)[C@H](CC(=O)O)NC1=O)NC(=O)[C@H](CC(C)(C)C)NC(=O)[C@H](CC(=O)O)NC2=O (stereo partly drawn) [I-2101, Ac-PL3-Asp-Npg-B5-Asp-3COOHF-Ala-dAla-Phe-Leu-PyrS2-2F3MeF-BztA-dAla-NH2] | 424 |
| CC(=O)N1CCC[C@]12CC=CCCCC1(CCCC=CCCCOC(=O)N3CC[C@@](C(=O)N[C@@H](Cc4ccccc4)C(=O)N[C@@H](Cc4csc5ccccc45)C(=O)N[C@H](C(N)=O)[C@@H](C)O)(C3)NC(=O)[C@H](CC(N)=O)NC(=O)[C@H](Cc3ccccc3)NC(=O)[C@H](C)NC(=O)[C@H](CCCCNC(C)C)NC(=O)[C@H](CCC(N)=O)NC(=O)[C@H](CC(=O)O)NC1=O)NC(=O)[C@H](CC1CCCCC1)NC(=O)[C@H](CC(N)=O)NC2=O (stereo partly drawn) [I-2112, Ac-PL3-Asn-Cha-B5-Asp-Gln-iPrLys-Ala-Phe-Asn-PyrS2-Phe-BztA-Thr-NH2] | 501 |
| CC(=O)N1CCC[C@]12CC=CCCCC1(CCCC=CCCCOC(=O)N3CC[C@@](C(=O)N[C@@H](Cc4ccccc4)C(=O)N[C@@H](Cc4csc5ccccc45)C(=O)N[C@@H](CCC(N)=O)C(N)=O)(C3)NC(=O)[C@H](CC(N)=O)NC(=O)[C@H](Cc3ccccc3)NC(=O)[C@H](C)NC(=O)[C@H](CCCCNC(C)C)NC(=O)[C@H](CCC(N)=O)NC(=O)[C@H](CC(=O)O)NC1=O)NC(=O)[C@H](CC1CCCCC1)NC(=O)[C@H](CC(N)=O)NC2=O (stereo partly drawn) [I-2113, Ac-PL3-Asn-Cha-B5-Asp-Gln-iPrLys-Ala-Phe-Asn-PyrS2-Phe-BztA-Gln-NH2] | 164 |
| CC(=O)N1CCC[C@]12CC=CCCCC1(CCCC=CCCCOC(=O)N3CC[C@@](C(=O)N[C@@H](Cc4ccsc4)C(=O)N[C@@H](Cc4csc5ccccc45)C(=O)N[C@@H](CCC(N)=O)C(N)=O)(C3)NC(=O)[C@H](CCO)NC(=O)[C@H](Cc3cccc(C(=O)O)c3)NC(=O)[C@H](C)NC(=O)[C@H](C)NC(=O)[C@H](Cc3ccc(O)cc3)NC(=O)[C@H](CC(=O)O)NC1=O)NC(=O)[C@H](CC(C)(C)C)NC(=O)[C@H](CC(=O)O)NC2=O (stereo partly drawn) [I-2124, Ac-PL3-Asp-Npg-B5-Asp-Tyr-Ala-Ala-3COOHF-Hse-PyrS2-3Thi-BztA-Gln-NH2] | 29 |
| CC(=O)N1CCC[C@]12CC=CCCCC1(CCCC=CCCCOC(=O)N3CC[C@@](C(=O)N[C@@H](Cc4ccsc4)C(=O)N[C@@H](Cc4csc5ccccc45)C(=O)N[C@@H](CCC(N)=O)C(N)=O)(C3)NC(=O)[C@H](CCO)NC(=O)[C@H](Cc3cccc(C(=O)O)c3)NC(=O)[C@H](C)NC(=O)[C@H](C)NC(=O)[C@H](Cc3ccc(O)cc3)NC(=O)[C@H](CC(=O)O)NC1=O)NC(=O)[C@H](CC(C)(C)C)NC(=O)[C@H](CC(=O)O)NC2=O (stereo partly drawn) [I-2125, Ac-PL3-Asp-Npg-B5-Asp-Tyr-Ala-Ala-3COOHF-Hse-PyrS2-3Thi-BztA-Gln-NH2] | 26 |
| CC(=O)N1CCC[C@]12CC=CCCCC1(CCCC=CCCCOC(=O)N3CC[C@@](C(=O)N[C@@H](Cc4ccsc4)C(=O)N[C@@H](Cc4csc5ccccc45)C(=O)N[C@@H](CCC(N)=O)C(N)=O)(C3)NC(=O)[C@H](CC(N)=O)NC(=O)[C@H](Cc3cccc(C(=O)O)c3)NC(=O)[C@H](C)NC(=O)[C@H](C)NC(=O)[C@H](Cc3c[nH]c4ccccc34)NC(=O)[C@H](CC(=O)O)NC1=O)NC(=O)[C@H](CC(C)(C)C)NC(=O)[C@H](CC(=O)O)NC2=O (stereo partly drawn) [I-2127, Ac-PL3-Asp-Npg-B5-Asp-Trp-Ala-Ala-3COOHF-Asn-PyrS2-3Thi-BztA-Gln-NH2] | 36 |
